We go through three compounds from patent US20170107173A1, “THERAPEUTIC COMPOUNDS AND METHODS” (UNIVERSITY OF IOWA RESEARCH FOUNDATION, priority 2015, published 2017).

For assay [1], the target named is T1, human μ opioid receptor (MOP) over-expressed in CHO cells (Homo sapiens, UniProt P35372).
T1 construct: host or cells: CHO cells; membrane homogenates
As to the kind of experiment: [35S]GTPγS binding assay, functional antagonism (Ke) vs DAMGO. The assay is classed as biochemical. To be noted: agonist DAMGO, read-out: apparent affinity (Ke) of antagonists, MOP. As to the method:
(§1) All compounds were initially screened for intrinsic and antagonist activity at 10 μM in the [^35S]GTPγS binding assay at the human κ, and the μ, and δ opioid receptors over-expressed in CHO cells. These cell lines were kindly provided by Temple University (κ) and SRI International (μ and δ). Compounds identified as antagonist were characterized for functional antagonism (Ke) and selectivity by measuring the ability of the test compounds to inhibit stimulated [^35S]GTPγS binding produced by one of the selective agonists DAMGO (μ), DPDPE (δ), or U69,593 (κ). Agonist concentration-response curves were run in the presence or absence of a single concentration of test compound.
(§2) The test compounds were assayed in duplicate in 1.4-mL polypropylene tubes in a 96-well format. CHO membrane homogenates (20-40 µg protein) were incubated with a positive control or the test compound, 0.1 nM [^35S]GTP-γ-S and 1 μM GDP in 50 mM HEPES buffer (pH 7.4) at room temperature for 1 h, after which bound radioligand was separated from free radioligand via rapid vacuum filtration over GF-B filters with a Brandel Scientific (Gaithersburg, Md.) 96-well harvester. Bound radioactivity is determined using a TopCount 12-detector instrument (Packard Instruments) using standard scintillation counting techniques. Bound radioactivity is normalized to samples containing vehicle (basal binding). […] The Ke values were calculated using the formula Ke=[L]/DR−1, where [L] is the concentration of test compound, and DR is the ratio of agonist EC50 value in the presence or absence of test compound.
(Binding of GTPγS marks nucleotide exchange on a G protein.)

The target of assay [2] is T2, human κ opioid receptor (KOP) over-expressed in CHO cells (Homo sapiens, UniProt P41145).
T2 construct: host or cells: CHO cells; membrane homogenates
T2 sequence (P41145 whole entry): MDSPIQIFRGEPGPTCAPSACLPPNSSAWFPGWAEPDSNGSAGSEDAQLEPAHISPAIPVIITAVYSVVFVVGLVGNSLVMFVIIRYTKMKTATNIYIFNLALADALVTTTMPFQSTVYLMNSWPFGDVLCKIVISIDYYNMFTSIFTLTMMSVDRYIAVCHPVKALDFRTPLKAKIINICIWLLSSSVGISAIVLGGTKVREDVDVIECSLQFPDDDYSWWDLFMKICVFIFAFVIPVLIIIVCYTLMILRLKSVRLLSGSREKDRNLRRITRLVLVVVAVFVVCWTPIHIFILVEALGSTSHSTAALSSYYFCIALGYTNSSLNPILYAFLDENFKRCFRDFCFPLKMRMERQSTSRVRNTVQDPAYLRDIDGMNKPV
As to the kind of experiment: [35S]GTPγS binding assay, functional antagonism (Ke) vs U69,593. The assay is classed as biochemical. To be noted: agonist U69,593, read-out: apparent affinity (Ke) of antagonists, KOP. As to the method: as §1, §2

In assay [3] the target is T2, human κ opioid receptor (KOP) over-expressed in CHO cells. To be noted: from Hartung et al., cited from earlier work; for Ke at the KOP: J. Nat. Prod. 2014, 77, 311.
In assay [4] the target is T3, human δ opioid receptor (DOP) over-expressed in CHO cells (Homo sapiens, UniProt P41143).
T3 construct: host or cells: CHO cells; membrane homogenates
T3 sequence (P41143 whole entry): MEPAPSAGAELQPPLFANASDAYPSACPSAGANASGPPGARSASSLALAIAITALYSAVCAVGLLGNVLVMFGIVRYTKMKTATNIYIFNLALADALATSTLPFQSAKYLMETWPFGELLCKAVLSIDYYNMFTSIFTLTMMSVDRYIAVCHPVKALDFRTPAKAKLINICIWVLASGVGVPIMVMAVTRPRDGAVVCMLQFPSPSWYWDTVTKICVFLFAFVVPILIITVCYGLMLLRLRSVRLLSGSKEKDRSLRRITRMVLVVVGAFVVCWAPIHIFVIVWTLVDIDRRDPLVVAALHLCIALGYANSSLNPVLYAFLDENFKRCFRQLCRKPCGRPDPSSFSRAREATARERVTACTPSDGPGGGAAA
As to the kind of experiment: [35S]GTPγS binding assay, functional antagonism (Ke) vs DPDPE. The assay is classed as biochemical. To be noted: for Kb: [35S]GTPγS, agonist DPDPE, read-out: apparent affinity (Ke) of antagonists, DOP. As to the method:
as §1, §2

Assay [5] concerns human κ, μ and δ opioid receptors over-expressed in CHO cells. As to the kind of experiment: [35S]GTPγS binding assay, screen for intrinsic agonist activity. To be noted: screened at 10 μM. The class given is biochemical. As to the method:
as §1
The test compounds were assayed in duplicate in 1.4-mL polypropylene tubes in a 96-well format. […] Bound radioactivity is determined using a TopCount 12-detector instrument (Packard Instruments) using standard scintillation counting techniques. Bound radioactivity is normalized to samples containing vehicle (basal binding). […] The Ke values were calculated using the formula Ke=[L]/DR−1, where [L] is the concentration of test compound, and DR is the ratio of agonist EC50 value in the presence or absence of test compound. […]

T1 sequence (P35372 whole entry): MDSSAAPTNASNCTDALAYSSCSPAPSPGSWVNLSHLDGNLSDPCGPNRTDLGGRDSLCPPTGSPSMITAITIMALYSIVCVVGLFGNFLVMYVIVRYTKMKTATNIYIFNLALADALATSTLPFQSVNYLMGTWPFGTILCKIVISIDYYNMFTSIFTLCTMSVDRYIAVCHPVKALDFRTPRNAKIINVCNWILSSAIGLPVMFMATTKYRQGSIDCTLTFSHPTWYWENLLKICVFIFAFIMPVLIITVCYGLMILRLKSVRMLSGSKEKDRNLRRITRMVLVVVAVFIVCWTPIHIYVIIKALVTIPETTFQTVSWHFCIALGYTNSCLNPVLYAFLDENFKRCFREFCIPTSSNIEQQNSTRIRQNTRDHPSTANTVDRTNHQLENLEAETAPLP

Take `CC(C)=CCC/C(C)=C/Cc1c(O)cc(O)cc1/C=C/c1ccc(O)c(O)c1CC=C(C)C` [Compound 1, pawhuskin A]: the results for the Kb in assay [1], in assay [2] and in assay [4] were 570 µM, 0.2 µM and 2.9 µM, respectively. For the same compound, in assay [3], the “Ke at the KOP” value was 0.20 µM.

In the case of `COc1cc(/C=C/c2ccc(O)c(O)c2CC=C(C)C)c(C/C=C(\C)CCC=C(C)C)c(OC)c1` [Compound 4], the intrinsic agonist activity entry in assay [5] is “no agonist activity”. For the same compound, the figures for the Kb in assay [1], in assay [2] and in assay [4] were greater than 10 µM, greater than 10 µM and 0.025 µM, respectively. Further, the KOP/DOP selectivity in assay [4] (ratio of Ke values) was greater than 400. Further, the MOP/DOP selectivity in assay [4] (ratio of Ke values) was greater than 400.

With `COc1cc(/C=C/c2cc(O)c(O)c(CC=C(C)C)c2)c(C/C=C(\C)CCC=C(C)C)c(OC)c1` [Compound 3, 5-((E)-2-((E)-3,7-dimethylocta-2,6-dien-1-yl)-3,5-dimethoxystyryl)-3-(3-methylbut-2-en-1-yl)benzene-1,2-diol], the Kb in assay [1] was greater than 10 µM; in assay [2] it was 0.15 µM; in assay [4], greater than 10 µM. Besides, in assay [3], the “Ke at the KOP” value was 0.15 µM. Further, the δ/κ selectivity in assay [3] (J. Nat. Prod. 2014) was greater than 67. In addition, the μ/κ selectivity in assay [3] (J. Nat. Prod. 2014) is recorded as greater than 67.
